This is an account of results in ChEMBL document CHEMBL3396984, “Structure-activity relationship study of diphenylamine-based estrogen receptor (ER) antagonists” (Bioorg Med Chem, 2015).

By IC50 is commonly meant the concentration at which inhibition is half-maximal.

The subject of assay [1] is MCF7. In words: Antiproliferative activity against human MCF7 cells after 5 days by WST-8 assay. In kind it is functional, cell-based. On the technique in general: Tetrazolium dyes change colour on reduction, which living cells bring about.
The subject of assay [2] is MCF7. In words: Estrogenic activity in human MCF7 cells. In kind it is functional, cell-based.
In assay [3] the test system is MCF7. In words: Ratio of tamoxifen IC50 to compound IC50 for human MCF7 cells. In kind it is functional.
Setting [4] is: Homo sapiens, MCF7, 120 h, read-out: IC50.

Activity calls are given as the source filed them. The rule behind the calls is not given here.

Regarding `CCN(CC)CCOc1ccc(N(Cc2ccccc2)c2ccc(O)cc2)cc1`, the Activity entry in assay [1] was “Dose-dependent effect”. In assay [1] (setting [4]), the IC50 was 1900 nM. Also, in assay [2], the result was inactive.
For `CCCCCCN(c1ccc(O)cc1)c1ccc(OCCCN(C)C)cc1`, in assay [1], the Activity entry was “Dose-dependent effect”. Also, the IC50 result in assay [1] (mcf7) is on record as “Not Active”. For the same compound, the outcome in assay [2] was inactive.
Regarding `CN(C)CCCOc1ccc(N(c2ccc(O)cc2)S(=O)(=O)c2ccccc2)cc1`, the Activity entry in assay [1] is “Dose-dependent effect”. Besides, the half-maximal inhibitory concentration (IC50) in assay [1] (setting [4]) came to 2200 nM. In assay [2], the outcome was inactive.
Regarding `CCCCCCN(c1ccc(O)cc1)c1ccc(OCCN2CCCC2)cc1`, the Activity entry in assay [1] was “Dose-dependent effect”. Besides, the IC50 in assay [1] (setting [4]) came out at 2700 nM. Moreover, the result in assay [2] was inactive.
As for `CCCCCCN(c1ccc(O)cc1)c1ccc(OCCN2CCCCCC2)cc1`, the Activity entry in assay [1] is “Dose-dependent effect”. In assay [1] (setting [4]), the IC50 turned out to be 1400 nM. Further, the outcome in assay [2] was inactive.
The matching figures for `Oc1ccc(N(Cc2ccccc2)c2ccc(OCCN3CCCC3)cc2)cc1`: “Dose-dependent effect”, 1300 nM and “inactive”.
In the case of `CN(C)CCOc1ccc(N(c2ccc(O)cc2)S(=O)(=O)c2ccccc2)cc1`, the Activity entry in assay [1] was “Dose-dependent effect”. Besides, the half-inhibitory concentration (IC50) in assay [1] (setting [4]) was determined as 9300 nM. The result in assay [2] was inactive.
As to `Oc1ccc(N(Cc2ccccc2)c2ccc(OCCN3CCCCCC3)cc2)cc1`, the Activity entry in assay [1] is “Dose-dependent effect”. In addition, the IC50 in assay [1] (setting [4]) came to 660 nM. Also, the result in assay [2] was inactive.
As for `CCN(CC)CCOc1ccc(N(c2ccc(O)cc2)S(=O)(=O)c2ccccc2)cc1`, in assay [1], the Activity entry was “Dose-dependent effect”. The concentration for half-maximal inhibition (IC50) in assay [1] (setting [4]) was 1300 nM. Besides, in assay [2], the result was inactive.
The matching figures for `CCCCCCN(c1ccc(O)cc1)c1ccc(OCCN(CC)CC)cc1`: “Dose-dependent effect”, 1400 nM and “inactive”.
In the case of `CN(C)CCCOc1ccc(N(Cc2ccccc2)c2ccc(O)cc2)cc1`, the Activity entry in assay [1] is “Dose-dependent effect”. Also, the 50% inhibitory concentration (IC50) in assay [1] (setting [4]) was found to be 2800 nM. Besides, the outcome in assay [2] was inactive.
`CCCCCCN(c1ccc(O)cc1)c1ccc(OCCN(C)C)cc1`: the Activity result in assay [1] was “Dose-dependent effect”. Further, the IC50 in assay [1] (setting [4]) turned out to be 2400 nM. Moreover, the outcome in assay [2] was inactive.
For `CC/C(=C(\c1ccccc1)c1ccc(OCCN(C)C)cc1)c1ccccc1` [TAMOXIFEN], in assay [1], the Activity result was “Dose-dependent effect”. In addition, the IC50 in assay [1] (setting [4]) was 2100 nM.
Consider `Oc1ccc(N(Cc2ccccc2)c2ccc(OCCN3CCCCC3)cc2)cc1`, for which the Activity result in assay [1] was “Dose-dependent effect”. Moreover, in assay [1] (setting [4]), the IC50 amounted to 800 nM. In addition, in assay [2], the outcome was inactive.
The matching figures for `CN(C)CCOc1ccc(N(Cc2ccccc2)c2ccc(O)cc2)cc1`: “Dose-dependent effect”, 4400 nM and “inactive”.
With `O=S(=O)(c1ccccc1)N(c1ccc(O)cc1)c1ccc(OCCN2CCCC2)cc1`, the Activity result in assay [1] was “Dose-dependent effect”. Further, the IC50 in assay [1] (setting [4]) stood at 500 nM. Besides, the outcome in assay [2] was inactive.
For `O=S(=O)(c1ccccc1)N(c1ccc(O)cc1)c1ccc(OCCN2CCCCC2)cc1`, the Activity result in assay [1] was “Dose-dependent effect”. Besides, in assay [1] (setting [4]), the IC50 was 320 nM. Also, the result in assay [2] was inactive.
For the compound `CCCCCCN(c1ccc(O)cc1)c1ccc(OCCN2CCCCC2)cc1`, the Activity entry in assay [1] is “Dose-dependent effect”. In assay [1] (setting [4]), the IC50 was found to be 130 nM. Besides, the result in assay [2] was inactive. Also, the “Ratio IC50” value in assay [3] is given as 10.
Take `CCC(=C(c1ccc(O)cc1)c1ccc(OCCN(C)C)cc1)c1ccccc1`: the Activity result in assay [1] is “Dose-dependent effect”. Moreover, in assay [1] (setting [4]), the half-inhibitory concentration (IC50) was 8900 nM.
